Consider two molecules from patent US20040254197A1, “Injections for eye tissues containing drug bonded to polyethlene glycol” (SANTEN PHARMACEUTICAL CO., LTD., priority 2001, published 2004).

Data set [1] relates to krypton laser-induced choroidal neovascularization. Nature of the data set: Effects of subconjunctivally administered betamethasone-PEG conjugate on krypton laser-induced choroidal neovascularization in rats. In kind it is in vivo. To be noted: single subconjunctival injection 50 μl (BM-PEG 40 mg/ml, BP 2.8 mg/ml), 14th day after photocoagulation, vehicle 71.9%. The protocol:
1) A one ml/kg mixed solution containing an aqueous ketamine hydrochloride solution (50 mg/ml) and an aqueous xylazine hydrochloride solution (50 mg/ml) in a ratio of 7:1 was administered intramuscularly to rats to anesthetize them systemically.
2) A 0.5% tropicamide-0.5% phenylephrine hydrochloride solution was instilled into the eyes to cause mydriasis, and then photocoagulation was performed with a krypton laser photocoagulation apparatus (red) under coagulation conditions of spot size of 100 μm, output of 100 mW and coagulation time of 0.1 sec.
3) Cover glass for observing tissues was used as a contact lens, the photocoagulation was carried out in a posterior pole portion of ocular fundus at eight spots per eye sparsely avoiding thick retinal vessels. The photocoagulation was carried out focusing on the retinal posterior portion in order to cut a Bruch's membrane. After the photocoagulation, the ocular fundus was photographed. […]
6) In the fluorescein fundus angiography, a photocoagulation site where fluorescence diapedesis was not observed was judged as negative, and a photocoagulation site where apparent fluorescence diapedesis was observed was judged as positive. When there are two photocoagulation sites where a little fluorescence diapedesis was observed, they were judged as positive. Each neovascularization exhibition rate was calculated according to the following equation. […]

The nature of data set [2]: Intraocular pharmacokinetic tests by fluorophotometry in rabbits after injection into the vitreous body. It counts as in vivo, white rabbits. To be noted: rabbit, intravitreous injection. How it is done:
Intraocular pharmacokinetic tests by fluorophotometry in rabbits It is difficult in terms of measurement techniques to actually trace transfer of slight amounts of tissues using the drug-PEG conjugate prepared above. Accordingly, fluorescein, which has fluorescence and can be measured with high sensitivity, was used as a model drug, a fluorescein-PEG conjugate (hereinafter referred to as “FL-PEG”) was synthesized, and intraocular pharmacokinetics tests were performed. Fluorescein sodium (hereinafter referred to as “FL”) was used as a comparative substance.
A 2.6% sterilized glycerin solution (10 ml) was added to FL-PEG (18 mg), and this liquid was stirred to dissolve FL-PEG to prepare an injection. A 10 μg/ml injection containing FL was prepared in the similar manner.
1) A mixed solution containing an aqueous ketamine hydrochloride solution (50 mg/ml) and an aqueous xylazine hydrochloride (50 mg/ml) in a ratio of 7:3 was administered intramuscularly to white rabbits to anesthetize.
2) A tropicamide (0.5%)/phenylephrine hydrochloride (0.5%) ophthalmic solution was instilled into eyes to cause mydriasis in the eyes.
3) The eyes were anesthetized with an oxybuprocaine hydrochloride (0.5%) ophthalmic solution.
4) The above-mentioned FL-PEG or FL liquid preparation was injected into the center of a vitreous body of one eye from an ocular pars plana in an amount of […] respectively with a syringe equipped with a 30 G needle.
5) Intraocular fluorescence intensity was measured with a fluorophotometry apparatus with the laps of time immediately after the administration to the vitreous body and at 1, 2, 4, 7, 15, 18, 23, 28, 35, 42, 49 and 56 days. A calibration curves were prepared, changes in concentration in the vitreous body and a retina were determined. Next, respective half-lives were calculated from the changes in concentration by a moment method. The above-mentioned operation 2) was carried out before the intraocular fluorescence intensity was measured.
The numerical values in the table are the average of three samples respectively. The half-life of FL-PEG in the vitreous body was calculated using measured values on forth to 28th day. […] The half-life of FL in the vitreous body was calculated using measured values immediately after the administration and on first day after the administration.

SMILES strings stand for the structures.

`C[C@H]1C[C@H]2[C@@H]3CCC4=CC(=O)C=C[C@]4(C)[C@@]3(F)[C@@H](O)C[C@]2(C)[C@@]1(O)C(=O)COP(=O)(O)O` [BP, Betamethasone phosphate]: the “Neovascularization exhibition rate (%)” value in data set [1] turned out to be 50.0%.
Broadly, the half-life is how long it takes for the measured level to halve. With `O=C1OC2(c3ccc(O)cc3Oc3cc(O)ccc32)c2ccccc21` [FL, Fluorescein sodium], the “Half-life in vitreous body” value in data set [2] (fluorophotometry, moment method, average of three samples) is reported as “less than four”. For the same molecule, in data set [2] (followed for 56 days), the “Detection in the retina (changes in concentration, FIG. 2)” value is recorded as “detected only on first day after the administration” and the “Detection in the vitreous body (changes in concentration, FIG. 1)” value is on record as “not detected on second day after the administration or later”. Moreover, in data set [2] (white, vitreous body, other: injection into the vitreous body (intravitreal), 1 µg/eye, fluorophotometry, moment method, average of three samples), the half-life was below 240 min.
